The species named for experiment [1] is Rattus norvegicus. The experiment in a line: Na+ -glucose co-transporter (SGLT) inhibitory activity against [C14]-glucose transport in BBMV's of rat kidney at compound concentration of 100 uM. The experiment is classed as functional.
The test system of experiment [2] is Rattus norvegicus. The experiment is described as follows: Urinary glucose excretion in Wistar rat after intravenous administration (3 mg/kg). The experiment is classed as functional, Urine.
The species named for experiment [3] is Rattus norvegicus. The experiment is described as follows: Na+ -glucose co-transporter (SGLT) inhibitory activity against [C14]-glucose transport in BBMV's of rat kidney at compound concentration of 100 uM: Not active. Type of experiment: functional.
The species entered for experiment [4] is Rattus norvegicus. The experiment is described as follows: Na+ -glucose co-transporter (SGLT) inhibitory activity against [C14]-glucose transport in BBMV's of rat kidney at compound concentration of 10 uM.

The structures appear in SMILES notation. Activity calls are given as the source filed them. No cut-off for these calls is given here.

A word on the Inhibition: it is the relative decrease from the control value, in per cent. Low readings indicate a response near the control, high ones a response far below the control. In the case of `CCc1ccc(Cc2c(C(F)(F)F)n[nH]c2O[C@@H]2O[C@H](C(=O)O)[C@@H](O)[C@H](O)[C@H]2O)cc1`, in the experiment filed under Rattus norvegicus [1], the Inhibition worked out at 30%. The molecule also came in with a Glucose in the experiment with Rattus norvegicus [2] of 2.6 mg/day.
Turning to `CSc1ccc(Cc2c(C(F)(F)F)n[nH]c2O)cc1`, in the experiment listed under Rattus norvegicus [3], the inhibition result is “inactive”. In the experiment with Rattus norvegicus [2], the Glucose worked out at 0 mg/day.
For `CCc1ccc(Cc2c(C(F)(F)F)n[nH]c2O[C@@H]2O[C@H](CO)[C@@H](O)[C@H](O)[C@H]2O)cc1`, the Inhibition in the experiment listed under Rattus norvegicus [4] was determined as 84%. Moreover, the Glucose in the experiment on Rattus norvegicus [2] worked out at 63 mg/day.
